# Test results as given in patent US20230382923A1, “FUSED TETRACYCLIC QUINAZOLINE DERIVATIVES AS INHIBITORS OF ERBB2” (EnLiven Therapeutics, Inc., priority 2021, published 2023).
# What was measured:
# [1] = target: phosphorylated ERBB2 (pERBB2) (Homo sapiens (Human), UniProt P04626); experiment: Detection of phosphorylated ERBB2 (pERBB2) by ELISA in BT-474 cells; type: cell-based; settings: four hours incubation with compound
# Method: BT-474 cells were seeded into a 96-well at 2.0*10^4cells/100 μl/well. Compounds were dissolved and serially diluted in DMSO. The compounds were then were added, mixed, and incubated for four hours at 37° C., 5% CO2. […] Following the four hour incubation with compounds, cell lysates were prepared. Plates were centrifuged for 5 min at 3000 RPM, and supernatant was removed from each well. Cells were washed 3 times by resuspension in 150 μl PBS, followed by centrifugation and removal of the supernatant, as above. 100 μl of cell lysis buffer (Boston BioProducts, cat #BP-115D) supplied with 1×complete ULTRA cocktail inhibitor (Thermo ScientificTM, cat #78443) was then added to the washed cells. Cells were incubated with lysis buffer for 1 hour at 4° C., and then stored at -80° C. Enzyme-linked immunosorbent assays (ELISA) were performed to measure phosphorylated ERBB2 levels. […] The next day, plates were washed with PBS+0.05% Tween20 (PBST). 150 μl of 5% BSA blocking solution was added for 1 hour at room temperature, with shaking. Plates were washed with PBST. Cell lysates were thawed and 100 μl of lysate was added to the ELISA plate. The plates were incubated for 2 hours at room temperature, with shaking. ELISA plates were then washed with PBST and 100 μl of an HRP-labeled detection antibody that binds phosphorylated tyrosine (R&D Systems, cat #841913) was added to each well. Plates were incubated for 1 hour at room temperature, with shaking. Plates were then washed with PBST, and 100 μl TMB substrate solution (R&D Systems, cat #DY999) was added. Plate were incubated in the dark for 20 minutes at room temperature. 50 μl of Stop solution (R&D Systems, cat #DY994) (50 μl) was added to each well and mixed. […] The remaining kinase activity by calculated using the following formula: % Relative activity=100×([…]). The low and high control values (“LC” and “HC”) were generated from lysate from wells without cells or with cells treated with 0.1% DMSO, respectively.
# [2] = target: phosphorylated EGFR (pEGFR) (Homo sapiens (Human), UniProt P00533); experiment: Detection of phosphorylated EGFR (pEGFR) by AlphaLISA in A431 cells; type: cell-based; settings: A431 cells (10% FBS), 4 hours incubation, EGF 30 ng/mL for 10 minutes
# Chain of phosphorylated EGFR (pEGFR) (P00533 25-1210): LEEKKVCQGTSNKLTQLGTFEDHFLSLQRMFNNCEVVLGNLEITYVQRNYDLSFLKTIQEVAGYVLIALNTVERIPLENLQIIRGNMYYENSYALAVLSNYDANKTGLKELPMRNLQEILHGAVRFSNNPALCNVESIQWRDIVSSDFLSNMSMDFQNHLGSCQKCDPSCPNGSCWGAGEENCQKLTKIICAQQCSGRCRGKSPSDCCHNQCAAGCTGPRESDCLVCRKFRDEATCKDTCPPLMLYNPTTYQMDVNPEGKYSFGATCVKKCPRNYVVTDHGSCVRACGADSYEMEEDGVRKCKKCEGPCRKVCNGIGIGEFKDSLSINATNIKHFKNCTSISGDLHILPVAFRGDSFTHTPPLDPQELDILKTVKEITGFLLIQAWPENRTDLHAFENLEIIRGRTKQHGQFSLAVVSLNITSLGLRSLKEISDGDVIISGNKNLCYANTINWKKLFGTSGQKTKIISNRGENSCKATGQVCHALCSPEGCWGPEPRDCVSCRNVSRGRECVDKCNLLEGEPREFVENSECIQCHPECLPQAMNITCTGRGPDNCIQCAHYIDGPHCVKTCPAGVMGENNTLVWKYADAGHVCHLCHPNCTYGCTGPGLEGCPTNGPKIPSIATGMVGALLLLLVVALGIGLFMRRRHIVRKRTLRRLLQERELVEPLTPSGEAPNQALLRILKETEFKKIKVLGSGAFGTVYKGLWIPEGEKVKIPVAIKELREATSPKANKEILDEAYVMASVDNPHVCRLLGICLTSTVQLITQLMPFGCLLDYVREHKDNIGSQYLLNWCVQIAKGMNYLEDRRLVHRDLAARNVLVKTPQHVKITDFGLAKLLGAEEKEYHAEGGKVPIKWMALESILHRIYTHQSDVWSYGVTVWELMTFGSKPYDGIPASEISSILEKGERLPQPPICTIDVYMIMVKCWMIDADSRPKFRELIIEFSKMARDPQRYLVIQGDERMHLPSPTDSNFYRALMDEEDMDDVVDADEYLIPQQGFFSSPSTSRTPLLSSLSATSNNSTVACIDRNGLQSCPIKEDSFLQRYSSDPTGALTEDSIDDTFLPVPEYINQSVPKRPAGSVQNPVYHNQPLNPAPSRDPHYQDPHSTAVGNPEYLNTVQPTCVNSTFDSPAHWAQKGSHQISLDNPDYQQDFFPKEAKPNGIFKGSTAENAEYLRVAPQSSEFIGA
# Method: […] were performed to measure phosphorylated EGFR levels using A431 cells (10% FBS). A431 (1.0*10^4cells/40 μl/well) cells were seeded in 384 well. Compounds were dissolved in DMSO, serially diluted in DMSO and then were added, mixed, and incubated for 4 hours at 37° C., […]. Following the 4-hours incubation, cells were stimulated for 10 minutes with EGF (Invitrogen, cat #PHG0311) at a final concentration of 30 ng/mL in the incubator. The media was aspirated and cells were lysed in 10 μL lysis buffer with protease and phosphatase inhibitors (PerkinElmer, cat #ALSU-PEGFR-A50K). The plates were placed on a shaker for 5 minutes and then incubated for 30 min at 4° C. for complete lysis. The lysate was transferred to an Optiplate (Perkin Elmer, cat #6007290).
# Acceptor mix (PerkinElmer, cat #ALSU-PEGFR-A50K) was prepared just before use and 5 μL was dispensed to all the wells, followed by a 1.5-2 h incubation at room temperature in dark. The donor mix (PerkinElmer, cat #ALSU-PEGFR-A50K) was prepared under low light conditions prior to use and 5 μl of donor mix was added to all the wells under subdued lighting or green filters. The plates were placed on a shaker for 5 min, sealed, and incubated overnight at room temperature in dark. Plates were read on the Envision (PerkinElmer) using standard AlphaLISA settings.
# The percentage of inhibition on EGFR phosphorylation was calculated following equation: % Inhibition=100×(LumHC−LumSample)/(LumHC−LumLC). The low and high controls (LC/HC) are generated from lysate from wells with cells treated with DMSO or […] Staurosporine (BioAustralis, cat #BIA-S1086), […]. IC50 values were calculated by fitting the Curve using XLfit (v5.3.1.3), equation 201: Y=Bottom+(Top−Bottom)/(1+10^((LogIC50−X)*HillSlope)).
# Chain of phosphorylated ERBB2 (pERBB2) (P04626 23-1255): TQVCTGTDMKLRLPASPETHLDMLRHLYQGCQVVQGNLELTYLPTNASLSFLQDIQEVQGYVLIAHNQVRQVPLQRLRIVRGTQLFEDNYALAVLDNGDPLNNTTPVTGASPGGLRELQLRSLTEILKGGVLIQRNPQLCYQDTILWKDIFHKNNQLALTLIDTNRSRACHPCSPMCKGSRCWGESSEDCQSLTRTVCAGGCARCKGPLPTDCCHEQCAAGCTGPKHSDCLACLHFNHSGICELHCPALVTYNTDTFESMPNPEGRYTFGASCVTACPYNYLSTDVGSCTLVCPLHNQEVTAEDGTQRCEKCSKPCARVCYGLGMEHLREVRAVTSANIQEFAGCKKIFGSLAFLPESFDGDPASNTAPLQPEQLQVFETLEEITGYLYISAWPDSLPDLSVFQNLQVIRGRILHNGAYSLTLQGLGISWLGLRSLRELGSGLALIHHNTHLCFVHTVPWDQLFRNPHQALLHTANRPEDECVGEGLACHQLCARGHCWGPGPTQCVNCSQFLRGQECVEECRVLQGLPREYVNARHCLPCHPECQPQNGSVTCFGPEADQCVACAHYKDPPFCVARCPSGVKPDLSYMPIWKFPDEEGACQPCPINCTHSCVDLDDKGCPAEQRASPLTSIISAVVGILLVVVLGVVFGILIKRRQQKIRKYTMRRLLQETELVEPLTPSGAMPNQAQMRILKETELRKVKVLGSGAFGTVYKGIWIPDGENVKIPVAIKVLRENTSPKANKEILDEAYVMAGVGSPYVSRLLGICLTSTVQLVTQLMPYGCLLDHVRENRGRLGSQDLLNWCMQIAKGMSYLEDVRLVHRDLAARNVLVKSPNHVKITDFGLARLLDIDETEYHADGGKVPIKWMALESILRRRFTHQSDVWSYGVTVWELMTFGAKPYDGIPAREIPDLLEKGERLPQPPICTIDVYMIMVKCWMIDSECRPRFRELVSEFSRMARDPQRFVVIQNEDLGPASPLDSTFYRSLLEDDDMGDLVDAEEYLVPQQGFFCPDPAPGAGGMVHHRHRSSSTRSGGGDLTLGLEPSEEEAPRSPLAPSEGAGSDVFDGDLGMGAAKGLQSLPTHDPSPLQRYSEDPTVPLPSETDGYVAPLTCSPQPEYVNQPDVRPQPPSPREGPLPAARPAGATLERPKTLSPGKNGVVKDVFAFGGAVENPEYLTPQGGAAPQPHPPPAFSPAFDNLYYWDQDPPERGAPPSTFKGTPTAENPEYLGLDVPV
IC50 [1],IC50 [2],SMILES
0.0342 µM,2.19 µM,"Cc1cc(Nc2ncnc3cc4c(nc23)N2CCN(C(=O)/C=C/CN(C)C)C(CO4)C2)ccc1Oc1ccc2c(c1)ncn2C (stereo in doubt) [Compound 6, (E)-4-(dimethylamino)-1-((10S)-4-((3-methyl-4-((1-methyl-1H-benzo[d]imidazol-5-yl)oxy)phenyl)amino)-7,8,10,11-tetrahydro-9H-6,10-methanopyrimido[4′,5′:5,6]pyrido[3,2-b][1,4,7]oxadiazonin-9-yl)but-2-en-1-one]"
0.0413 µM,> 10 µM,"Cc1cc(Nc2ncnc3cc4c(cc23)N2CCN(C(=O)/C=C/CN(C)C)C(CO4)C2)ccc1Oc1ccc2c(c1)ncn2C (stereo in doubt) [Compound 7, (E)-4-(dimethylamino)-1-((10S)-4-((3-methyl-4-((1-methyl-1H-benzo[d]imidazol-5-yl)oxy)phenyl)amino)-7,8,10,11-tetrahydro-9H-6,10-methano[1,4,7]oxadiazonino[3,2-g]quinazolin-9-yl)but-2-en-1-one]"
0.0189 µM,> 10 µM,"Cc1cc(Nc2ncnc3cc4c(cc23)N2CCN(C(=O)/C=C/CN(C)C)C(CO4)C2)ccc1Oc1ccn2ncnc2c1 (stereo in doubt) [Compound 9, (E)-1-((10S)-4-((4-([1,2,4]triazolo[1,5-a]pyridin-7-yloxy)-3-methylphenyl)amino)-7,8,10,11-tetrahydro-9H-6,10-methano[1,4,7]oxadiazonino[3,2-g]quinazolin-9-yl)-4-(dimethylamino)but-2-en-1-one]"
0.0052 µM,3.04 µM,"Cc1cc(Nc2ncnc3cc4c(nc23)N2CCN(C(=O)/C=C/CN(C)C)C(CO4)C2)ccc1Oc1ccn2ncnc2c1 (stereo in doubt) [Compound 10, (E)-1-((10S)-4-((4-([1,2,4]triazolo[1,5-a]pyridin-7-yloxy)-3-methylphenyl)amino)-7,8,10,11-tetrahydro-9H-6,10-methanopyrimido[4′,5′:5,6]pyrido[3,2-b][1,4,7]oxadiazonin-9-yl)-4-(dimethylamino)but-2-en-1-one]"
0.103 µM,> 10 µM,"CC#CC(=O)N1CCN2CC1COc1cc3ncnc(Nc4ccc(Oc5ccc6c(c5)ncn6C)c(C)c4)c3cc12 (stereo in doubt) [Compound 11, 1-((10S)-4-((3-methyl-4-((1-methyl-1H-benzo[d]imidazol-5-yl)oxy)phenyl)amino)-7,8,10,11-tetrahydro-9H-6,10-methano[1,4,7]oxadiazonino[3,2-g]quinazolin-9-yl)but-2-yn-1-one]"
0.0428 µM,7.06 µM,"CC#CC(=O)N1CCN2CC1COc1cc3ncnc(Nc4ccc(Oc5ccn6ncnc6c5)c(C)c4)c3cc12 (stereo in doubt) [Compound 12, 1-((10S)-4-((4-([1,2,4]triazolo[1,5-a]pyridin-7-yloxy)-3-methylphenyl)amino)-7,8,10,11-tetrahydro-9H-6,10-methano[1,4,7]oxadiazonino[3,2-g]quinazolin-9-yl)but-2-yn-1-one]"
0.343 µM,> 10 µM,"Cc1cc(Nc2ncnc3cc4c(nc23)N2CCN(C(=O)/C=C/CN(C)C)C(CO4)C2)ccc1Oc1ccn2ncnc2c1 (stereo in doubt) [Compound 15, (E)-1-((10R)-4-((4-([1,2,4]triazolo[1,5-a]pyridin-7-yloxy)-3-methylphenyl)amino)-7,8,10,11-tetrahydro-9H-6,10-methanopyrimido[4′,5′:5,6]pyrido[3,2-b][1,4,7]oxadiazonin-9-yl)-4-(dimethylamino)but-2-en-1-one]"
0.242 µM,> 10 µM,"CC#CC(=O)N1CCN2CC1COc1cc3ncnc(Nc4ccc(Oc5ccc6c(c5)ncn6C)c(C)c4)c3nc12 (stereo in doubt) [Compound 16, 1-((10S)-4-((3-methyl-4-((1-methyl-1H-benzo[d]imidazol-5-yl)oxy)phenyl)amino)-7,8,10,11-tetrahydro-9H-6,10-methanopyrimido[4′,5′:5,6]pyrido[3,2-b][1,4,7]oxadiazonin-9-yl)but-2-yn-1-one]"
0.0628 µM,4.43 µM,"CC#CC(=O)N1CCN2CC1COc1cc3ncnc(Nc4ccc(Oc5ccn6ncnc6c5)c(C)c4)c3nc12 (stereo in doubt) [Compound 18, 1-((10S)-4-((4-([1,2,4]triazolo[1,5-a]pyridin-7-yloxy)-3-methylphenyl)amino)-7,8,10,11-tetrahydro-9H-6,10-methanopyrimido[4′,5′:5,6]pyrido[3,2-b][1,4,7]oxadiazonin-9-yl)but-2-yn-1-one]"
0.025 µM,0.621 µM,"Cc1ccc(Oc2ccc(Nc3ncnc4cc5c(nc34)N3CCN(C(=O)/C=C/CN(C)C)C(CO5)C3)cc2C)cn1 (stereo in doubt) [Compound 21, (E)-4-(dimethylamino)-1-((10S)-4-((3-methyl-4-((6-methylpyridin-3-yl)oxy)phenyl)amino)-7,8,10,11-tetrahydro-9H-6,10-methanopyrimido[4′,5′:5,6]pyrido[3,2-b][1,4,7]oxadiazonin-9-yl)but-2-en-1-one]"
0.209 µM,> 10 µM,"C=C(F)C(=O)N1CCN2CC1COc1cc3ncnc(Nc4ccc(Oc5ccn6ncnc6c5)c(C)c4)c3nc12 (stereo in doubt) [Compound 23, 1-((10S)-4-((4-([1,2,4]triazolo[1,5-a]pyridin-7-yloxy)-3-methylphenyl)amino)-7,8,10,11-tetrahydro-9H-6,10-methanopyrimido[4′,5′:5,6]pyrido[3,2-b][1,4,7]oxadiazonin-9-yl)-2-fluoroprop-2-en-1-one]"
0.00554 µM,0.338 µM,"Cc1cc(Nc2ncnc3cc4c(nc23)N2CCN(C(=O)/C=C/CN(C)C)C(CO4)C2)ccc1Oc1cccnc1 (stereo in doubt) [Compound 25, (E)-4-(dimethylamino)-1-((10S)-4-((3-methyl-4-(pyridin-3-yloxy)phenyl)amino)-7,8,10,11-tetrahydro-9H-6,10-methanopyrimido[4′,5′:5,6]pyrido[3,2-b][1,4,7]oxadiazonin-9-yl)but-2-en-1-one]"
1.93 µM,–,"C=CC(=O)N1CCN2C[C@@H]1COc1cc3ncnc(Nc4ccc(Cc5ccn6ncnc6c5)c(C)c4)c3nc12 [Compound 19, 1-((10R)-4-((4-([1,2,4]triazolo[1,5-a]pyridin-7-ylmethyl)-3-methylphenyl)amino)-7,8,10,11-tetrahydro-9H-6,10-methanopyrimido[4′,5′:5,6]pyrido[3,2-b][1,4,7]oxadiazonin-9-yl)prop-2-en-1-one]"
0.012 µM,–,"Cc1cc(Nc2ncnc3ccc(NC4=NC(C)(C)CO4)cc23)ccc1Oc1ccn2ncnc2c1 [Tucatinib, tucatinib, reference compound]"

SMILES,IC50 [1],IC50 [2]
"Cc1cc(Nc2ncnc3cc4c(nc23)N2CCN(C(=O)/C=C/CN(C)C)C(CO4)C2)c(F)cc1Oc1ccn2ncnc2c1 (stereo in doubt) [Compound 24, (E)-1-((10S)-4-((4-([1,2,4]triazolo[1,5-a]pyridin-7-yloxy)-2-fluoro-5-methylphenyl)amino)-7,8,10,11-tetrahydro-9H-6,10-methanopyrimido[4′,5′:5,6]pyrido[3,2-b][1,4,7]oxadiazonin-9-yl)-4-(dimethylamino)but-2-en-1-one]",0.00838 µM,2.16 µM
